Experimental data: patent US20220338473A1, “USE OF BENZYL ALCOHOL AS A HERBICIDE” (INNOVI, priority 2019, published 2022)

Experiments:
Carnation = assay: Systemic application through contact with the above-ground parts (half of plant treated); format: in vivo; conditions: potted, only one half sprayed, 4 g benzyl alcohol (200 L/Ha) in 4 g total (200 L/Ha)
Procedure: (§1) Assays were carried out on different plants by treatment on a fraction of the above-ground parts.
(§2) The assays were carried out on potted plants.
(§3) The systemic action was evaluated on several types of plants by treatment on a fraction of its above-ground parts.
(§4) The application of the product is carried out with a trigger spray bottle which makes it possible to spray 1 g of product per spraying, as microdroplets.
(§5) The treated plants are sprinkled on only one half, with different quantities of water comprising different quantities of pure benzyl alcohol (PanReac AppliChem—ITW Reagents). The untreated (control) plants are sprinkled with the same total quantity, but of water only.
(§6) The collapsing of the plant, the colour intensity and the diameter of the plant were measured as indicated in Example 1. The systemic effectiveness time was also measured in the following manner: • Systemic effectiveness time: 50% of the plant is initially treated with the product. The time necessary to see the first effects (systemically) appear on the part not treated (systemically) is determined.

Grass [1] = assay: as above; format: in vivo; conditions: potted, only one half sprayed, 16 g benzyl alcohol (800 L/Ha) in 20 g total (1000 L/Ha)
Procedure: as §1, §2, §3, §4, §5, §6

Horned pansy = assay: as above; format: in vivo; conditions: potted, only one half sprayed, 0.1 g benzyl alcohol (5 L/Ha) in 12 g total (600 L/Ha)
Procedure: as §1, §2, §3, §4, §5, §6

Hypoestes = assay: as above; format: in vivo; conditions: potted, only one half sprayed, 1 g benzyl alcohol (50 L/Ha) in 8 g total (400 L/Ha)
Procedure: as §1, §2, §3, §4, §5, §6

Osteospermum = assay: as above; format: in vivo; conditions: potted, only one half sprayed, 2 g benzyl alcohol (100 L/Ha) in 2 g total (100 L/Ha)
Procedure: as §1, §2, §3, §4, §5, §6

White petunia = assay: as above; format: in vivo; conditions: potted, only one half sprayed, 10 g benzyl alcohol (500 L/Ha) in 16 g total (800 L/Ha)
Procedure: as §1, §2, §3, §4, §5, §6

Grass [2] = assay: Non-selective activity on herbaceous plants (spraying, potted); format: in vivo, grass of the ryegrass type; conditions: 4 g benzyl alcohol (200 L/Ha) in 8 g total (400 L/Ha)
Procedure: The non-selective character of benzyl alcohol was studied on 3 common varieties of herbaceous plants, two dicotyledons (dandelions and clover) and a monocotyledon (grass).
The grass of the ryegrass type makes it possible to confirm that the spectrum of action of benzyl alcohol is broad.
The assays were carried out on potted plants. The application of the product is carried out with a trigger spray bottle which makes it possible to spray 1 g of product per spraying, as microdroplets.
The treated plants are sprinkled with different quantities of water comprising different quantities of pure benzyl alcohol (PanReac AppliChem—ITW Reagents). The untreated (control) plants are sprinkled with the same total quantity of water only.
The plants are observed at the following times: T0, 6 h, 24 h, 48 h, 72 h, 96 h. The collapsing of the plant, the colour intensity and the diameter of the plant were measured as indicated in Example 1.

Barley seeds = assay: Pre-emergence herbicide activity: germination of seeds sown at different depths; format: in vivo
Procedure: as §2
Pure benzyl alcohol was used (PanReac AppliChem—ITW Reagents). The application of the product is carried out with a trigger spray bottle which makes it possible to spray 1 g of product per spraying as microdroplets.
Barley seeds (50 seeds per condition) are sown in potting soil at different depths (1, 2 and 3 cm). Then, 100% benzyl alcohol is sprayed on the earth (above the seeds) at different concentrations (10, 25, 50, 100, 200, 300 L/Ha).
The state of germination is observed at 0 and 11 days. The percentage of germination is the percentage of germinated seeds evaluated after 11 days.
The percentage of seeds germinated under each of the conditions is determined and if it is below 70%, pre-emergence use is not recommended.

Bindweed = assay: Preventative herbicide activity by sprinkling of the soil; format: in vivo; design: key to Plants sprouted despite the preventative treatment: yes: the areas where the plants have sprouted despite the preventative treatment; no: the areas where the preventative treatment made it possible to prevent the sprouting of the identified plants; conditions: for Plants sprouted despite the preventative treatment: soil sprinkling
Procedure: (§7) Areas identified as each year showing the presence of couch grass, grass, bindweeds and thistles were treated preventatively. […] The results are reported in Table 6 below, in which the note “yes” indicates the areas where the plants have sprouted despite the preventative treatment, and the note “no” indicates the areas where the preventative treatment made it possible to prevent the sprouting of the identified plants.

Couch grass = assay: as above; format: in vivo; design: key to Plants sprouted despite the preventative treatment: yes: the areas where the plants have sprouted despite the preventative treatment; no: the areas where the preventative treatment made it possible to prevent the sprouting of the identified plants; conditions: for Plants sprouted despite the preventative treatment: soil sprinkling
Procedure: as §7

Thistle = assay: as above; format: in vivo; design: key to Plants sprouted despite the preventative treatment: yes: the areas where the plants have sprouted despite the preventative treatment; no: the areas where the preventative treatment made it possible to prevent the sprouting of the identified plants; conditions: for Plants sprouted despite the preventative treatment: soil sprinkling
Procedure: as §7

## OCc1ccccc1 [benzyl alcohol]
Carnation
  A: systemic effectiveness time (whole plant affected): at 72 h
  B: collapsing (score and time): time to pass from score 5 (T0) to score 1: 86 h
  C: colour intensity (score and time): time to pass from score 5 (T0) to score 1: 96 h
  D: diameter (score and time): time to pass from score 5 (T0) to score 1: 120 h
Grass [1]
  A: systemic effectiveness time (whole plant affected): at 96 h
  B: collapsing (score and time): time to pass from score 5 (T0) to score 1: 144 h
  C: colour intensity (score and time): time to pass from score 5 (T0) to score 1: 120 h
  D: diameter (score and time): time to pass from score 5 (T0) to score 1: 168 h
Horned pansy
  A: systemic effectiveness time (whole plant affected): at 120 h
  B: collapsing (score and time): time to pass from score 5 (T0) to score 1: 168 h
  C: colour intensity (score and time): time to pass from score 5 (T0) to score 1: 144 h
  D: diameter (score and time): time to pass from score 5 (T0) to score 1: 168 h
Hypoestes
  A: systemic effectiveness time (whole plant affected): at 96 h
  B: collapsing (score and time): time to pass from score 5 (T0) to score 1: 120 h
  C: colour intensity (score and time): time to pass from score 5 (T0) to score 1: 120 h
  D: diameter (score and time): time to pass from score 5 (T0) to score 1: 144 h
Osteospermum
  A: systemic effectiveness time (whole plant affected): at 96 h
  B: collapsing (score and time): time to pass from score 5 (T0) to score 1: 144 h
  C: colour intensity (score and time): time to pass from score 5 (T0) to score 1: 120 h
  D: diameter (score and time): time to pass from score 5 (T0) to score 1: 144 h
White petunia
  A: systemic effectiveness time (whole plant affected): at 24 h
  B: collapsing (score and time): time to pass from score 5 (T0) to score 1: 48 h
  C: colour intensity (score and time): time to pass from score 5 (T0) to score 1: 48 h
  D: diameter (score and time): time to pass from score 5 (T0) to score 1: 48 h
Grass [2]
  Collapsing (score and time): time to pass from score 5 (T0) to score 1: 1 to 48 h
  Colour intensity (score and time): time to pass from score 5 (T0) to score 1: 1 to 24 h
  Diameter (score and time): time to pass from score 5 (T0) to score 1: 1 to 48 h
Barley seeds; seeding depth 1 cm, 50 L/Ha benzyl alcohol sprayed on the earth
  Pre-emergence use prescribed (germination of sown seeds at 11 days not below 70%): yes (pre-emergence use is prescribed)
Barley seeds; seeding depth 1 cm, 100 L/Ha benzyl alcohol sprayed on the earth
  Pre-emergence use prescribed (germination of sown seeds at 11 days not below 70%): no (pre-emergence use is not recommended)
Barley seeds; seeding depth 1 cm, less than 50 L/Ha benzyl alcohol sprayed on the earth
  Pre-emergence use prescribed (germination of sown seeds at 11 days not below 70%): yes (pre-emergence use is prescribed)
Barley seeds; seeding depth 2 cm, 50 L/Ha benzyl alcohol sprayed on the earth
  Pre-emergence use prescribed (germination of sown seeds at 11 days not below 70%): yes (pre-emergence use is prescribed)
Barley seeds; seeding depth 2 cm, 100 L/Ha benzyl alcohol sprayed on the earth
  Pre-emergence use prescribed (germination of sown seeds at 11 days not below 70%): yes (pre-emergence use is prescribed)
Barley seeds; seeding depth 2 cm, less than 50 L/Ha benzyl alcohol sprayed on the earth
  Pre-emergence use prescribed (germination of sown seeds at 11 days not below 70%): yes (pre-emergence use is prescribed)
Barley seeds; seeding depth 3 cm, 50 L/Ha benzyl alcohol sprayed on the earth
  Pre-emergence use prescribed (germination of sown seeds at 11 days not below 70%): yes (pre-emergence use is prescribed)
Barley seeds; seeding depth 3 cm, 100 L/Ha benzyl alcohol sprayed on the earth
  Pre-emergence use prescribed (germination of sown seeds at 11 days not below 70%): yes (pre-emergence use is prescribed)
Barley seeds; seeding depth 3 cm, less than 50 L/Ha benzyl alcohol sprayed on the earth
  Pre-emergence use prescribed (germination of sown seeds at 11 days not below 70%): yes (pre-emergence use is prescribed)
Bindweed; preventative soil sprinkling
  Quantity of benzyl alcohol (sprinkling) that prevents sprouting: 110 L/Ha
Bindweed; 50 L/ha pure benzyl alcohol
  Plants sprouted despite the preventative treatment: yes
Bindweed; 70 L/Ha pure benzyl alcohol
  Plants sprouted despite the preventative treatment: yes
Bindweed; 110 L/Ha pure benzyl alcohol
  Plants sprouted despite the preventative treatment: no
Bindweed; 120 L/Ha pure benzyl alcohol
  Plants sprouted despite the preventative treatment: no
Bindweed; 130 L/Ha pure benzyl alcohol
  Plants sprouted despite the preventative treatment: no
Bindweed; 150 L/Ha pure benzyl alcohol
  Plants sprouted despite the preventative treatment: no
Couch grass; preventative soil sprinkling
  Quantity of benzyl alcohol (sprinkling) that prevents sprouting: 130 L/Ha
Couch grass; 50 L/ha pure benzyl alcohol
  Plants sprouted despite the preventative treatment: yes
Couch grass; 70 L/Ha pure benzyl alcohol
  Plants sprouted despite the preventative treatment: yes
Couch grass; 110 L/Ha pure benzyl alcohol
  Plants sprouted despite the preventative treatment: yes
Couch grass; 120 L/Ha pure benzyl alcohol
  Plants sprouted despite the preventative treatment: yes
Couch grass; 130 L/Ha pure benzyl alcohol
  Plants sprouted despite the preventative treatment: no
Couch grass; 150 L/Ha pure benzyl alcohol
  Plants sprouted despite the preventative treatment: no
Thistle; preventative soil sprinkling
  Quantity of benzyl alcohol (sprinkling) that prevents sprouting: 110 L/Ha
Thistle; 50 L/ha pure benzyl alcohol
  Plants sprouted despite the preventative treatment: yes
Thistle; 70 L/Ha pure benzyl alcohol
  Plants sprouted despite the preventative treatment: yes
Thistle; 110 L/Ha pure benzyl alcohol
  Plants sprouted despite the preventative treatment: no
Thistle; 120 L/Ha pure benzyl alcohol
  Plants sprouted despite the preventative treatment: no
Thistle; 130 L/Ha pure benzyl alcohol
  Plants sprouted despite the preventative treatment: no
Thistle; 150 L/Ha pure benzyl alcohol
  Plants sprouted despite the preventative treatment: no
